Several values for one entry are separate records, joined by “and”; a condition that tells them apart may be missing. Equal entries are not always repeated. Entries after “also recorded” stand apart in the source; their conditions may differ.
How the values were obtained:
hCB1 [1] = biological target: T1, hCB1 (Homo sapiens, UniProt P21554); test: GloSensor cAMP accumulation assay; type: cell-based
Procedure: Briefly, hCB1-expressing cells were transfected with the GloSensor cAMP DNA construct overnight. […] The results were analyzed using GraphPad Prism 9. Each experiment was performed in triplicate and functional IC50 values were determined from the mean of three independent experiments.

[2] = biological target: T2, CB1R with G protein (Gi1-3, Go) (Homo sapiens, UniProt P21554); test: GTP turnover assay (GTPase-Glo); type: biochemical; conditions: replicates, sheet FigS3c
T2 construct: a N-terminal FLAG tag and C-terminal histidine tag was added to human full-length CB1; FLAG (N); histidine tag (C); made in house; host or cells: CB1R: Spodoptera frugiperda Sf9; G proteins: Trichoplusia ni Hi5
T2 sequence (P21554 whole entry): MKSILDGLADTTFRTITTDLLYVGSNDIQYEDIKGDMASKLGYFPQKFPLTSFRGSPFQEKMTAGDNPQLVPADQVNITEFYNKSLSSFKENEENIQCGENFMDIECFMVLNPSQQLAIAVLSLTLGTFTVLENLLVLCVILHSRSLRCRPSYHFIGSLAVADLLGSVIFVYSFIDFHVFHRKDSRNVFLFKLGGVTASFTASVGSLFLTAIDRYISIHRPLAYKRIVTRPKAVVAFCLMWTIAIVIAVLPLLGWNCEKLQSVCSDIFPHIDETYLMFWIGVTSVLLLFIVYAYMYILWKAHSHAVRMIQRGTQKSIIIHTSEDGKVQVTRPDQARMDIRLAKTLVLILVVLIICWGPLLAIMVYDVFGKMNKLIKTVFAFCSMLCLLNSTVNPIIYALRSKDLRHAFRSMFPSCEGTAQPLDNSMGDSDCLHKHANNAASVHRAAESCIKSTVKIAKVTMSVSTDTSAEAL
Procedure: Analysis of GTP turnover was performed by using a modified protocol of the GTPase-Glo^TM assay (Promega) described previously. Ligand-bound (10 μM ligand incubated for one hour at room temperature) or apo CB1R (1 μM) was mixed with G protein (1 μM) in 20 mM HEPES, pH 7.5, 50 mM NaCl, 0.01% L-MNG/0.001% CHS, 100 μM TCEP, 10 μM GDP and 10 μM GTP and incubated at room temperature. GTPase-Glo-reagent was added to the sample after incubation for 60 min (Gi1-3) and 20 min for (Go). Luminescence was measured after the addition of detection reagent and incubation for 10 min at room temperature using a SpectraMax Paradigm plate reader.

mice = test: Tail flick, 50 °C water bath; type: in vivo, mouse; conditions: for analgesic response normalised to baseline, WT vs CB1R KO (Figure5d), individual animals / Response relative to Baseline, individual animals (FigS11c): 0.2 mg/kg; for Response relative to Baseline, individual animals (FigS11c): test not printed on the sheet; for Response relative to baseline (baseline about 100): individual animals, sheet Figure7b, test not given
[3] = Pharmacokinetics: plasma, brain, CSF; conditions: for brain AUC0→inf / brain Cmax / level in CSF: 0.2 mg/kg i.p., CD-1 mice; for concentration at 1 min / concentration at 5 min / concentration at 15 min / concentration at 30 min / concentration at 60 min / concentration at 120 min / concentration at 240 min / concentration at 360 min / concentration at 480 min / half-life / AUC(0-inf) / Cmax: male, CD-1, mouse, 0.2 mg/kg; for concentration at 1 min / concentration at 5 min / concentration at 15 min / concentration at 30 min / concentration at 60 min / concentration at 120 min / concentration at 240 min / concentration at 360 min / concentration at 480 min: intraperitoneal; for half-life / AUC(0-inf) / Cmax: ip
hCB1 [4] = biological target: T1, hCB1; test: Radioligand competition binding at hCB1; design: host or cells: HEK293SL cells, transient PEI transfection; conditions: for radioligand binding, competition curve point (normalized): log[drug]
[5] = first block, G protein not printed (Gi2, Gi3, Goa follow)

T1 sequence (P21554 whole entry): as above

COC(=O)C(NC(=O)c1cc(C)n(-c2cccc(C(F)(F)F)c2)n1)c1cccs1 (stereo not drawn) [‘60154]
EC50 (hCB1 [1]): 25.2 nM
Emax (hCB1 [1]): 82%
Glosensor cAMP pEC50 (hCB1 [1]): 7.6 [7.4 – 7.8]

COC(=O)[C@@](C)(NC(=O)c1cc(C)n(-c2cccc(C(F)(F)F)c2)n1)c1cccs1 [‘1350]
GTP turnover, normalised (FUB about 100) ([2]; Gi2): 96.8998 and 91.3876 and 87.4526 and 89.8295 and 89.8906 and 82.6279
GTP turnover, normalised (FUB about 100) ([2]; Gi3): 81.2301 and 82.2228 and 81.0231 and 89.3188 and 82.6055 and 85.3572
GTP turnover, normalised (FUB about 100) ([2]; Goa): 86.5272 and 96.4818 and 93.6031 and 96.9291 and 99.611 and 94.5957
GTP turnover, normalised (FUB about 100) [2, 5]: 83.1663 and 86.2553 and 85.2024 and 81.617 and 83.7026 and 83.2158
tail flick latency on cotreatment with morphine (mice; 0.05 and 0.1 mg/kg plus morphine 3.0 mg/kg i.p.): significantly longer tail-flick latencies than did mice injected with morphine alone
effect of CB1R knockout on analgesia, tail flick (mice; CB1R KO mice): completely blocked the analgesic effect
analgesic response normalised to baseline, WT vs CB1R KO (Figure5d), individual animals (mice; CB1R KO mice): 106.345 and 98.767 and 101.721 and 166.196 and 107.501
Response relative to Baseline, individual animals (FigS11c) (mice; CB2R KO mice): 164.985 and 191.573 and 174.006 and 295.549 and 230.504 and 308.843 and 149.555 and 202.493 and 243.323 and 186.825
tail flick response normalised to baseline (Figure4a), individual animals (mice; Dose 0.05 mg/kg): 119.013 and 100.323 and 160.799 and 150.926 and 127.123
tail flick response normalised to baseline (Figure4a), individual animals (mice; Dose 0.1 mg/kg): 155.51 and 183.368 and 185.307 and 158.155 and 125.713
tail flick response normalised to baseline (Figure4a), individual animals (mice; Dose 0.2 mg/kg): 215.281 and 170.849 and 208.757 and 269.409 and 238.025
tail flick response normalised to baseline (Figure4a), individual animals (mice; Dose 0.5 mg/kg): 229.386 and 270.644 and 271.701 and 225.86 and 268.175
analgesic response normalised to baseline, WT vs CB1R KO (Figure5d), individual animals (mice; WT mice): 175.053 and 136.358 and 121.523 and 181.234 and 162.69 and 195.08 and 109.284 and 151.687 and 140.809 and 142.663
Response relative to Baseline, individual animals (FigS11c) (mice; WT mice): 303.35 and 281.096 and 250.176 and 198.641 and 149.684 and 198.173 and 421.644 and 117.592 and 166.55 and 75.1933
lowest dose with significantly increased tail flick latency (mice; i.p., 30 min after injection): 0.1 mg/kg
brain AUC0→inf [3]: 8180 ng·min/mL
brain Cmax [3]: 44.1 ng/g
level in CSF [3]: but not CSF compartments; also recorded: below the quantification limit
concentration at 1 min ([3]; CSF): 0 ng/mL
concentration at 5 min ([3]; CSF): 1.2 ng/mL
concentration at 15 min ([3]; CSF): 0 ng/mL
concentration at 30 min ([3]; CSF): 0 ng/mL
concentration at 60 min ([3]; CSF): 0 ng/mL
concentration at 120 min ([3]; CSF): 0 ng/mL
concentration at 240 min ([3]; CSF): 0 ng/mL
concentration at 360 min ([3]; CSF): 0 ng/mL
concentration at 480 min ([3]; CSF): 0.14 ng/mL
concentration at 1 min ([3]; brain): 0 ng/g
concentration at 5 min ([3]; brain): 8.24 ng/g
concentration at 15 min ([3]; brain): 41.8 ng/g
concentration at 30 min ([3]; brain): 29.5 ng/g
concentration at 60 min ([3]; brain): 44.1 ng/g
concentration at 120 min ([3]; brain): 33.1 ng/g
concentration at 240 min ([3]; brain): 4.35 ng/g
concentration at 360 min ([3]; brain): 8.81 ng/g
concentration at 480 min ([3]; brain): 2.87 ng/g
half-life ([3]; brain): 1.87 h
concentration at 1 min ([3]; plasma): 0 ng/mL
concentration at 5 min ([3]; plasma): 6.41 ng/mL
concentration at 15 min ([3]; plasma): 10.8 ng/mL
concentration at 30 min ([3]; plasma): 5.48 ng/mL
concentration at 60 min ([3]; plasma): 7.25 ng/mL
concentration at 120 min ([3]; plasma): 6.15 ng/mL
concentration at 240 min ([3]; plasma): 0.376 ng/mL
concentration at 360 min ([3]; plasma): 1.1 ng/mL
concentration at 480 min ([3]; plasma): 0.486 ng/mL
AUC(0-inf) ([3]; plasma): 25.2 ng·h/mL
Cmax ([3]; plasma): 10.8 ng/mL and 25 nM
half-life ([3]; plasma): 1.85 h
Ki (hCB1 [4]): 0.32 nM
radioligand binding, competition curve point (normalized) (hCB1 [4]; M = -6.64345, replicate columns): 11.7845 and 1.336
radioligand binding, competition curve point (normalized) (hCB1 [4]; M = -7.35666, replicate columns): 11.2233 and 0.827
radioligand binding, competition curve point (normalized) (hCB1 [4]; M = -8.06987, replicate columns): 12.4018 and 13.4224
radioligand binding, competition curve point (normalized) (hCB1 [4]; M = -8.78308, replicate columns): 40.0112 and 26.5903
radioligand binding, competition curve point (normalized) (hCB1 [4]; M = -9.49629, replicate columns): 69.0236 and 54.2939
radioligand binding, competition curve point (normalized) (hCB1 [4]; M = -10.2095, replicate columns): 97.7273 and 72.2328
radioligand binding, competition curve point (normalized) (hCB1 [4]; M = -11.9245, replicate columns): 99.9439 and 88.4224
radioligand binding, competition curve point (normalized) (hCB1 [4]; M = -13.6383, replicate columns): 102.525 and 91.0941

COC(=O)C(C)(NC(=O)c1cc(C)n(-c2cccc(C(F)(F)F)c2)n1)c1cccs1 (stereo not drawn) [‘4042]
Response relative to baseline (baseline about 100) (mice; '4042 0.05 mg/kg, 0.05 mg/kg): 262 and 191 and 164 and 198 and 183
Response relative to baseline (baseline about 100) (mice; '4042 0.1 mg/kg, 0.1 mg/kg): 419.4 and 155.9 and 181.4 and 122.5 and 239.8
Emax (hCB1 [1]): 91%
Glosensor cAMP pEC50 (hCB1 [1]): 10.4 [10.3 – 10.5]

COC(=O)[C@](C)(NC(=O)c1cc(C)n(-c2cccc(C(F)(F)F)c2)n1)c1cccs1 [‘8690]
GTP turnover, normalised (FUB about 100) ([2]; Gi2): 16.9643 and 39.0749 and 37.2739 and 44.0104 and 47.8141 and 43.1917
GTP turnover, normalised (FUB about 100) ([2]; Gi3): 40.931 and 39.8765 and 45.2237 and 46.1547 and 48.6065 and 44.9238
GTP turnover, normalised (FUB about 100) ([2]; Goa): 61.5575 and 70.4664 and 69.7244 and 64.4739 and 72.6259 and 67.4132
GTP turnover, normalised (FUB about 100) [2, 5]: 38.198 and 43.143 and 41.7234 and 41.9514 and 39.8163 and 42.5776

Cc1cc(C(=O)NC(C)(c2ccco2)c2ccco2)nn1-c1cccc(C(F)(F)F)c1 [‘4936]
brain AUC0→inf [3]: 5610 ng·min/mL
brain Cmax [3]: 26.2 ng/g
level in CSF [3]: but not CSF compartments
concentration at 1 min ([3]; CSF): 0 ng/mL
concentration at 5 min ([3]; CSF): 0 ng/mL
concentration at 15 min ([3]; CSF): 0 ng/mL
concentration at 30 min ([3]; CSF): 0 ng/mL
concentration at 60 min ([3]; CSF): 0 ng/mL
concentration at 120 min ([3]; CSF): 0 ng/mL
concentration at 240 min ([3]; CSF): 0 ng/mL
concentration at 360 min ([3]; CSF): 0 ng/mL
concentration at 480 min ([3]; CSF): 0 ng/mL
concentration at 1 min ([3]; brain): 0 ng/g
concentration at 5 min ([3]; brain): 2.39 ng/g
concentration at 15 min ([3]; brain): 12 ng/g
concentration at 30 min ([3]; brain): 25.2 ng/g
concentration at 60 min ([3]; brain): 26.1 ng/g
concentration at 120 min ([3]; brain): 17.9 ng/g
concentration at 240 min ([3]; brain): 6.06 ng/g
concentration at 360 min ([3]; brain): 7.4 ng/g
concentration at 480 min ([3]; brain): 1.98 ng/g
half-life ([3]; brain): 2.08 h
concentration at 1 min ([3]; plasma): 0 ng/mL
concentration at 5 min ([3]; plasma): 0.512 ng/mL
concentration at 15 min ([3]; plasma): 1.63 ng/mL
concentration at 30 min ([3]; plasma): 4.54 ng/mL
concentration at 60 min ([3]; plasma): 3.59 ng/mL
concentration at 120 min ([3]; plasma): 3.55 ng/mL
concentration at 240 min ([3]; plasma): 1.18 ng/mL
concentration at 360 min ([3]; plasma): 0.867 ng/mL
concentration at 480 min ([3]; plasma): 0 ng/mL
AUC(0-inf) ([3]; plasma): 14.4 ng·h/mL
Cmax ([3]; plasma): 4.5 ng/mL and 11 nM
Ki (hCB1 [4]): 3.98 nM
radioligand binding, competition curve point (normalized) (hCB1 [4]; M = -5.643, replicate columns): -14.5136 and 0.4673
radioligand binding, competition curve point (normalized) (hCB1 [4]; M = -6.357, replicate columns): -3.19 and 6.075
radioligand binding, competition curve point (normalized) (hCB1 [4]; M = -7.07, replicate columns): 20.4147 and 9.813
radioligand binding, competition curve point (normalized) (hCB1 [4]; M = -7.783, replicate columns): 36.2041 and 27.8816
radioligand binding, competition curve point (normalized) (hCB1 [4]; M = -8.496, replicate columns): 40.1914 and 64.2523
radioligand binding, competition curve point (normalized) (hCB1 [4]; M = -9.21, replicate columns): 71.0526 and 82.243
radioligand binding, competition curve point (normalized) (hCB1 [4]; M = -9.923, replicate columns): 77.9904 and 73.053
radioligand binding, competition curve point (normalized) (hCB1 [4]; M = -10.636, replicate columns): 83.8915 and 104.439
